Measured values: patent US20020198161A1, “THERAPEUTIC USES OF ANTIOXIDANTS” (priority 1997, published 2002)
Entries after “also recorded” stand apart in the source; their conditions may differ.

Tests used:
[1] = tested on: tMEF p53+/+ cells; test: Apoptosis / viability in E1A/Ha-ras-transformed MEF (tMEF p53+/+); assay type: cell-based, mouse; conditions: for effect on cell viability (trypan blue exclusion) / apoptosis (DNA analysis): p53+/+ tMEF; for effect on cell viability (trypan blue exclusion): 48 h, tocopherol acetate 200 μM, Trolox 200 μM, BHA 100 μM; for apoptosis (DNA analysis): chain-breaking antioxidants; for apoptosis in E1A/Ha-ras transformed cells (viability, DNA fragmentation, flow cytometry): 50 μM DMP, 20 mM OTC, 24-48 h
Protocol: Cell Lines. MEF primary mouse embryo fibroblast cells (passage <5) and E1A/Ha-ras-transformed MEF were as in Lowe (18). […] The (Rostein, J. B. et al., 1988, Mutation Research 202:421-427) 1 mouse embryo fibroblast cell line was as in Levine (Harney, D. M. et al., 1991, Genes Dev. 5:2375-2385). BALB/c 3T3 A31 cells were obtained from the American Type Culture Collection (Bethesda, Md.). 308 papilloma cells were maintained in 0.05 mM Ca2+ EMEM medium with 10% fetal bovine serum, and all other cells were grown in DMEM medium with 10% heat-inactivated fetal bovine serum. Cell culture confluence was maintained below 80%.
(§1) Chemicals and Cell Treatments. All chemicals were obtained from Sigma, except for Trolox which was purchased from Aldrich. These compounds were freshly dissolved in medium and adjusted to neutral pH if necessary, or (for vitamin E acetate, Trolox, and BHA) first dissolved in ethanol and added to the medium. Cell viability was determined by trypan blue exclusion as a measure of cell death independent of any growth suppression by p53.
(§2) Apoptosis Assays. For fixed cells, apoptosis-associated DNA strand breaks were visualized by fluorescent in situ end-labeling as previously described (Ziegler, A. et al., 1994, Nature 372:773-776). For isolated DNA, DNA fragmentation analysis was performed (Lowe, S. W. et al., 1993, Cell 74:957-967).
(§3) For flow cytometry analysis, approximately 10^6 cells per sample were washed with ice-cold PBS and fixed in 95% ethanol. Cells were then resuspended in 1 mg/ml RNase (Sigma) for 30 min at 37° C. and stained with 0.05 mg/ml propidium iodide (Sigma) for 1 h on ice. Flow cytometric analysis was performed with a FACS Vantage flow cytometer (Becton-Dickinson). Cells were excited at 488 nm and the emission was detected through a 630/22 nm band pass filter. A minimum of 10,000 cells were analyzed for each sample. Cell cycle analysis was performed using the Modfit 5.2 software (Verity Software House). […] Cellular debris was gated out using the electronic threshold.

[2] = tested on: p53; test: p53 induction in BALB/c 3T3 A31 fibroblast cell line; assay type: cell-based, murine; conditions: BALB/c 3T3 A31 cells
Source text: (§4) Cell Lines. MEF primary mouse embryo fibroblast cells (passage <5) and E1A/Ha-ras-transformed MEF were as in Lowe (18). The 308 papilloma cell line, which has a mutant Ha-ras allele (Strickland, J. E. et al., 1988, Cancer Res. 48) and wild-type p53 (Liu, M. et al., 1995, Oncogene 10:1955-1960) were also utilized. The (Rostein, J. B. et al., 1988, Mutation Research 202:421-427) 1 mouse embryo fibroblast cell line was as in Levine (Harney, D. M. et al., 1991, Genes Dev. 5:2375-2385). BALB/c 3T3 A31 cells were obtained from the American Type Culture Collection (Bethesda, Md.). 308 papilloma cells were maintained in 0.05 mM Ca2+ EMEM medium with 10% fetal bovine serum, and all other cells were grown in DMEM medium with 10% heat-inactivated fetal bovine serum. Cell culture confluence was maintained below 80%.
(§5) Northern and Western Blot Analysis. Northern and Western blot analysis were performed as previously described (Liu, M. et al., 1995, Oncogene 10:1955-1960).

[3] = tested on: 308 papilloma cells; test: Apoptosis-associated DNA strand breaks, fluorescent in situ end-labeling, 308 cells; assay type: cell-based, murine; conditions: 20 mM NAC, 24 h
Source text: as §4, §2

[4] = tested on: p53+/+ colorectal carcinoma cell line RKO; test: Apoptosis in colorectal carcinoma cell line RKO; assay type: cell-based; conditions: human p53+/+ RKO cells
Protocol: as §2

[5] = tested on: p53-/- tMEF and MEF cells; test: Apoptosis / viability in transformed and normal primary cells from p53-/- null mice; assay type: cell-based, mouse; conditions: for p53 requirement of apoptosis induction: p53-/- versus p53+/+ transformed MEF
Source text: as §4, §1, §2

[6] = tested on: 308 papilloma cells; test: Cell viability by trypan blue exclusion in 308 papilloma cells; assay type: cell-based, murine; conditions: NAC dose range
Source text: as §4, §1

[7] = tested on: p53 protein; test: p53 protein synthesis rate in 308 cells (35S-methionine labeling); assay type: cell-based, murine; conditions: 20 mM NAC, 5 h post-treatment
Protocol: Analysis of p53 Protein Synthesis. Cultures of 308 cells were treated in the absence or presence of 20 mM NAC. At 4.5 h post-treatment, cells were incubated with methionine-free medium containing 2% dialyzed and chelexed fetal bovine serum for 0.5 h. At 5 h post-treatment, biosynthetic labeling was initiated by adding 200 μCi of ^35S-methionine per ml of methionine-free medium. The labeling was terminated at 5, 10, or 15 min. Throughout the experiment, 20 mM NAC was included in the group of NAC-treated cells. Cells were then washed twice with 10 ml of ice-cold PBS, scraped, and pelleted by centrifugation at 1500 rpm at 4° C. for 5 min. The supernatant was removed, and the cell pellet was lysed in ice-cold cell lysis buffer (0.5% Triton X-100, 300 mM NaCl, 50 mM Tris-HCl, pH 7.4, 10 μg/ml leupeptin, 0.1 mM phenylmethylsulfonyl fluoride). Aliquots of cell lysate containing equal amounts of protein (30 μg) were subjected to immunoprecipitation analysis with anti-p53 antibody PAb122 (25) and Protein A-agarose (GIBCO-BRL). The immunoprecipitated proteins were resolved on a 10% SDS-PAGE gel. The levels of synthesized p53 protein were then determined by densitometric scanning using a Hewlett-Packard ScanJet 4P Scanner and the NIH image 1.59 analysis software.

[8] = tested on: DNA; conditions: literature references; cited from earlier work
[9] = tested on: p53 mRNA; test: p53 mRNA steady-state level in 308 cells (Northern blot); assay type: cell-based, murine; conditions: 20 mM NAC, 5 h
Source text: as §4, §5

[10] = tested on: p53 protein; test: p53 protein level in 308 cells (Western blot); assay type: cell-based, murine; conditions: dose-dependent, within 3 to 8 hours
Source text: as §4, §5

[11] = tested on: p53 protein; test: p53 induction in normal MEF p53+/+ cells (immunohistochemical staining); assay type: cell-based, mouse; conditions: 20 mM NAC, 5 h
Protocol: FIGS. 2A-2C. p53-dependent apoptosis by NAC is selective for transformed cells. FIG. 2A: viability of normal (MEF) and transformed (tMEF) cells measured by trypan blue exclusion after treatment with NAC for 24 h. FIG. 2B: analysis of DNA fragmentation from tMEF cells exposed to NAC. FIG. 2C: immunohistochemical staining of p53 protein in p53+/+ MEF cells after 5 h exposure to 20 mM NAC.
as §4

[12] = tested on: MEF p53+/+ cells; test: Apoptosis / viability in normal primary MEF (MEF p53+/+); assay type: cell-based, mouse; conditions: for apoptosis in normal counterparts: normal MEF, 50 μM DMP, 20 mM OTC
Source text: as §4, §1, §2, §3

[13] = tested on: tMEF p53+/+ cells; test: GSH and total thiols in tMEF p53+/+ cells (GSH-400 kit); assay type: cell-based, mouse; conditions: 20 μM BSO 1 h preincubation then 20 μM BSO + 20 mM NAC 5 h
Protocol: FIG. 6. Analysis of GSH, total thiols, and viability in tMEF p53+/+ cells treated with BSO and/or NAC. Cells treated with both compounds were preincubated with medium containing 20 μM BSO for 1 h and then treated with medium containing 20 μM BSO and 20 mM NAC for 5 h (GSH and thiols) or for 24 h (viability).
Measurement of GSH and Total Thiols. Cells (4×106) were harvested from each sample. The GSH-400 kit (R & D Systems) was used following the manufacturer's instructions.

| SMILES | effect on cell viability (trypan blue exclusion) [1] | apoptosis (DNA analysis) [1] | apoptosis induction [4] | apoptosis in E1A/Ha-ras transformed cells (viability, DNA fragmentation, flow cytometry) ([1]; transformed MEF) | p53 requirement of apoptosis induction [5] | apoptosis in normal counterparts [12] | also measured |
| --- | --- | --- | --- | --- | --- | --- | --- |
| Cc1c(C)c2c(c(C)c1O)CCC(C)(C(=O)O)O2 (centres unmarked) [Trolox] | little effect on cell viability; also recorded: do not induce cell death | no apoptosis occurred; also recorded: did not induce p53-dependent apoptosis |  |  |  |  |  |
| CC(=O)N[C@@H](CS)C(=O)O [NAC, N-acetylcysteine] |  |  | induced apoptosis |  |  |  | p53 induction [2]: induced p53; in situ end-labeling of DNA strand-breaks (apoptosis) [3]: showing in situ end-labeling of DNA strand-breaks; NAC-induced apoptosis (viability, DNA fragmentation) ([1]; tMEF p53+/+, NAC 24 h): sensitive to NAC-induced apoptosis; NAC-induced apoptosis (viability) ([5]; transformed and normal primary cells from p53-/- null mice, NAC 24 h): deficient in apoptosis induced by NAC; cell death (cell viability by trypan blue exclusion) [6]: dose-dependent cell death; elevation of biosynthetic rate of p53 protein [7]: ~5 fold; induction of DNA damage [8]: does not induce DNA damage; steady-state level of p53 mRNA vs control [9]: no major difference; increase of p53 protein levels [10]: 5- to 10 fold; p53 induction [11]: p53 was induced; NAC-induced apoptosis (viability) ([12]; normal MEF p53+/+, NAC 24 h): strikingly resistant |
| O=C(O)CCCC[C@@H]1CCSS1 (racemic) [lipoic acid] |  |  | induced apoptosis | behaved similarly | required p53 | behaved similarly |  |
| COc1ccc(O)c(C(C)(C)C)c1 [BHA] | little effect on cell viability; also recorded: do not induce cell death | no apoptosis occurred |  |  |  |  |  |
| CC(=O)Oc1c(C)c(C)c2c(c1C)CCC(C)(CCC[C@H](C)CCC[C@H](C)CCCC(C)C)O2 (some centres unmarked) [vitamin E acetate, tocopherol acetate] | little effect on cell viability | no apoptosis occurred; also recorded: did not induce p53-dependent apoptosis |  |  |  |  | effect on cell viability (trypan blue exclusion) ([1]; listed as tocopherol acetate): do not induce cell death |
| CCCCS(=N)(=O)CCC(N)C(=O)O [BSO, L-buthionine sulfoximine] |  |  |  |  |  |  | effect on induction of cellular GSH by NAC [13]: completely blocks induction of cellular GSH by NAC; also recorded: inhibits cellular GSH elevation by NAC; effect on induction of total thiols by NAC [13]: only partially blocking the induction of total thiols; effect on NAC-induced apoptosis (viability) ([1]; tMEF p53+/+, 20 μM BSO + 20 mM NAC 24 h): did not block NAC-induced apoptosis; also recorded: cannot block NAC-induced apoptosis |
| O=C1N[C@H](C(=O)O)CS1 [OTC, L-2-oxo-4-thiazolidinecarboxylate] |  |  | induced apoptosis | selectively induced apoptosis | required p53 | not in their normal counterparts |  |
| OCC(S)CS (centres unmarked) [DMP, 2,3-dimercaptopropanol] |  |  | induced apoptosis | selectively induced apoptosis | required p53 | not in their normal counterparts | doses at which active (apoptosis induction) ([1]; transformed MEF): ≥ 50 µM |
